Usually EC50 stands for the midpoint of the concentration-response curve. For orientation: IC50 means the midpoint of a concentration-inhibition curve. Read a low IC50 as greater potency.

Consider 51 molecules from PubChem BioAssay AID179 (DTP/NCI, 2004).

Each structure is given as a SMILES string. “And” between values parts separate entries of the source, which are not always exact repeats. Equal values may be shown once. The source made the active and inactive calls.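 Rule for the calls: active = compounds giving half or more protection of infected cells from virus-caused growth loss, again on retest; inactive = the rest.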

The subject of the experiment is CEM cells HIV-1 protection, formazan growth assay. As to the kind of experiment: NCI AIDS Antiviral Assay. Particulars: for IC50: measured here: growth of uninfected CEM cells. Put shortly: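 Five concentrations of each compound were applied to infected and uninfected human CEM cells. Protection from HIV-1 was judged from growth measured with a soluble formazan assay.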

Consider `C=C(C)[C@@H]1CC[C@]2(COC(=O)CC(C)(C)CC(=O)O)CC[C@]3(C)[C@H](CC[C@@H]4[C@@]5(C)CC[C@H](OC(=O)CC(C)(C)CC(=O)O)C(C)(C)[C@@H]5CC[C@]43C)[C@@H]12`, for which the EC50 was greater than 200 µM and the half-inhibitory concentration (IC50) stood at 7.08 µM.

Consider `C#CCCCCC#Cc1ccccc1C(=O)OC`, for which the EC50 is greater than 151 µM and the IC50 was 28.8 µM.

For `CCCCCCCCCCC(c1ccc(O)c(C(=O)O)c1)c1ccc(O)c(C(=O)O)c1`, the EC50 was greater than 447 µM and the half-inhibitory concentration (IC50) is 107 µM.

As to `CC/C(Cl)=N\OC(=O)Nc1ccc(F)c(Cl)c1`, the result was inactive.

Consider `N#CN=C(N(Cc1ccccc1)Cc1ccccc1)N(Cc1ccccc1)Cc1ccccc1`, for which the EC50 is greater than 39.8 µM and the IC50 was greater than 39.8 µM.

For `CC1CCCC2(C1)OCC(O)CO2` (configuration not stated), the outcome was inactive.

In the case of `CC(=O)C1C(=O)C(=O)N(c2cccc(C)c2C)C1=O` (configuration not stated), the EC50 was greater than 200 µM and the 50% inhibitory concentration (IC50) is greater than 200 µM.

For the molecule `Cc1c(CCN=P(c2ccccc2)(c2ccccc2)c2ccccc2)c(=O)n2c([nH]c3ccccc32)c1C#N`, the EC50 is greater than 200 µM and the IC50 came out at 31.6 µM.

`C(=C\c1ccnc2ccccc12)/c1ccc2c(c1)OCO2`: the result was inactive and the half-inhibitory concentration (IC50) stood at 66.1 µM.

On to `COC1=C(C)C(=O)C(=O)c2cccnc21`, for which the result was inactive.

`C=C1c2nc3ccccc3n2C=C(c2ccccc2)N1c1ccc(C)cc1`: the EC50 was greater than 200 µM and the half-maximal inhibitory concentration (IC50) stood at 28.2 µM.

In the case of `CC[C@H](NC(=O)OC(C)(C)C)C(=O)NCP(=O)(OCc1ccc([N+](=O)[O-])cc1)OCc1ccc([N+](=O)[O-])cc1`, the EC50 was greater than 200 µM and the IC50 is 33.9 µM.

With `O=C1/C(=C/c2ccccc2)CN(C(=O)OCc2ccccc2)C/C1=C\c1ccccc1`, the result was inactive.

Regarding `CCCCC1C(=O)N2c3ccccc3-c3ccccc3N2C1=O`, the result was inactive.

Take `CC(C)CCCC(C)[C@H]1CCC2C3C[C@@H](CCC=C(c4cc(Cl)c(O)c(C(=O)O)c4)c4cc(Cl)c(O)c(C(=O)O)c4)[C@H]4CCCC[C@]4(C)C3CC[C@@]21C` (some centres not stated): the EC50 was 20 µM and the half-inhibitory concentration (IC50) is greater than 100 µM.

Take `CSc1c(C(N)=S)c(N)nn1-c1ccccc1`: the EC50 is greater than 200 µM and the IC50 was 155 µM.

In the case of `COC(CN1C=C(Sc2ccccc2)CC1)OC`, the EC50 is greater than 97.7 µM and the 50% inhibitory concentration (IC50) was determined as 16.6 µM.

In the case of `COC(=O)C(c1[nH]nc2ccccc12)C(C(=O)OC)c1[nH]nc2ccccc12` (configuration not stated), the result was inactive.

Turning to `CS(=O)(=O)CS(=O)CS(=O)CS(=O)CC(NC(=O)CCC(N)C(=O)O)C(=O)O` (configuration not stated), the EC50 is greater than 513 µM and the half-maximal inhibitory concentration (IC50) was greater than 513 µM.

As to `CC1=C(C#N)C(=O)OC1(C)C(CC(=O)c1ccccc1)c1ccccc1` (configuration not stated), the EC50 is greater than 200 µM and the IC50 is 8.32 µM.

In the case of `CCOP(=O)(/C=C/c1cc(OC)ccc1OC)OCC`, the EC50 is greater than 832 µM; the IC50 was 355 µM and 158 µM.

For the molecule `Cc1cn(C2CC(N=[N+]=[N-])C(COC(=O)CCCCCCCCCCCBr)O2)c(=O)[nH]c1=O` (configuration not stated), the result was active and the IC50 was 37.2 µM.

For `COc1ccc(-c2oc3c(Cl)cc(Cl)cc3c(=O)c2O)cc1OC`, the EC50 was greater than 200 µM and the concentration for half-maximal inhibition (IC50) was greater than 200 µM.

Consider `COc1ccc(CCCNC(=O)c2cc(OC)c(OC)cc2CCO)cc1OC`, for which the EC50 was greater than 200 µM and the IC50 is greater than 200 µM.

For the molecule `COc1ccc2c(c1)OCC(O)(c1ccccc1)C2O` (configuration not stated), the EC50 was greater than 200 µM and the IC50 is greater than 200 µM.

For `N#C/C(=C/Sc1ccccc1)C(=O)O`, the outcome was inactive.

Consider `CCCCOC(=S)SSC(=S)NCCNC(=S)SSC(=S)OCCCC`, for which the EC50 was greater than 200 µM and the half-inhibitory concentration (IC50) was found to be 55 µM.

Consider `OCC(O)C(OC1OC(CO)C(O)C(O)C1O)c1nn(-c2ccccc2)c2nc3cc(Cl)ccc3nc12` (configuration not stated), for which the result was inactive.

With `N#CC(C#N)c1ccc(C(=O)N2CCC[C@H]2CO)cc1`, the outcome was inactive.

`C=CC(C)(C)[C@@]12CC3C(=O)N[C@@H](CC(C)C)C(=O)N3[C@@H]1N(C(C)=O)c1ccccc12` (some centres not stated): the EC50 was greater than 30.2 µM and the IC50 was greater than 30.2 µM.

As to `O=C(O)c1ccc2c3c(ncnc13)-c1ccccc1C2=O`, the EC50 is greater than 200 µM and the half-inhibitory concentration (IC50) is 14.8 µM.

For the molecule `NC1=NC(N)=N1`, the EC50 is greater than 2950 µM and the IC50 is greater than 2950 µM.

Consider `COC(=O)C(=O)C(C(=O)C(=O)Nc1ccc([N+](=O)[O-])cc1[N+](=O)[O-])c1nc2ccc([N+](=O)[O-])cc2[nH]c1=O` (configuration not stated), for which the EC50 is greater than 468 µM and the 50% inhibitory concentration (IC50) is 141 µM.

With `CC(C)(C)c1cc2c(c(C(C)(C)C)c1O)CC(=O)O2`, the EC50 was greater than 200 µM and the IC50 stood at 41.7 µM.

Consider `CCn1c(SCC(=O)NNC(=S)NC)nc2ccccc2c1=O`, for which the EC50 is greater than 200 µM and the half-maximal inhibitory concentration (IC50) is greater than 200 µM.

With `O=C(O)c1cc(Cc2cc(C(=O)O)c(O)c(C(=O)c3ccc(O)c(C(=O)O)c3)c2)ccc1O`, the EC50 is 537 µM and the concentration for half-maximal inhibition (IC50) amounted to 832 µM.

On to `Cc1ccnc(NC(=S)Nc2ccccc2Cl)c1`, for which the EC50 was greater than 200 µM and the IC50 was greater than 200 µM.

In the case of `CCCCCCCCCCCCCCCCCCCCCCCCCCCCCC=C(c1cc(Cl)c(O)c(C(=O)O)c1)c1cc(Cl)c(O)c(C(=O)O)c1`, the EC50 was 12.3 µM and the IC50 was 224 µM.

Take `NC(CSS(=O)(=O)O)=NCCCC1CCCCC1`: the EC50 is greater than 200 µM and the IC50 is 102 µM.

For `NC(=O)n1ncc(Cl)c(Cl)c1=O`, the EC50 is greater than 91.2 µM and the IC50 is 47.9 µM.

Take `CN(C)c1cccc2c(S(=O)(=O)NCCN)cccc12`: the EC50 was greater than 200 µM and the IC50 turned out to be 174 µM.

As to `Cc1ccc(-n2nncc2[Si](C)(C)C)s1`, the EC50 was greater than 200 µM and the IC50 was 148 µM.

Consider `CC1=Nc2ccccc2N=C(c2c(O)c3ccc4ccccc4c3oc2=O)C1`, for which the EC50 was greater than 200 µM and the IC50 worked out at 49 µM.

As to `CC1NS(=O)(=O)N(C)C1=O` (configuration not stated), the outcome was inactive.

Consider `CCCCCCCC(=O)O[C@H]1[C@H]2[C@@H](CC1(C)C)C(=O)[C@]13O[C@H]1C(=O)[C@]1(CO1)[C@]23C`, for which the EC50 was greater than 162 µM and the IC50 was found to be 0.55 µM.

On to `CC1(C)CC(=O)C2(CC(CSc3ccccc3)C(CS(=O)(=O)c3ccccc3)C2)C(=O)C1` (configuration not stated), for which the EC50 is greater than 200 µM and the 50% inhibitory concentration (IC50) is greater than 200 µM.

Turning to `Nc1nc2c(-c3ccc([N+](=O)[O-])cc3)nnn2c2ccccc12`, the EC50 was greater than 4.68 µM and the half-maximal inhibitory concentration (IC50) is greater than 4.68 µM.

For the molecule `CC1(C)CC(=O)C2=C(C1)Nc1ccc(Cl)cc1NC2c1ccccc1` (configuration not stated), the EC50 was greater than 200 µM and the IC50 amounted to 75.9 µM.

For `CN(C)C1C(=O)C(C(=O)NC[N+]23CCO[B-]2(c2ccc(Cl)cc2)OCC3)=C(O)C2(O)C(=O)C3=C(O)c4c(O)cccc4C(C)(O)C3CC12` (configuration not stated), the EC50 was greater than 27.5 µM and the half-inhibitory concentration (IC50) was greater than 27.5 µM.

In the case of `Cc1ccccc1NC(=O)c1[nH]c(=S)nc(N)c1-c1ccccc1C`, the EC50 is greater than 97.7 µM and the half-maximal inhibitory concentration (IC50) is greater than 97.7 µM.

In the case of `O=C(NCCN(CCNC(=O)c1cccc(=O)n1O)CCNC(=O)c1cccc(=O)n1O)c1cccc(=O)n1O`, the EC50 was greater than 200 µM and the 50% inhibitory concentration (IC50) is greater than 200 µM.
